Each compound was assayed against T1, human TLR8 (Homo sapiens, UniProt Q9NR97) (assay: TLR8 inhibition reporter assay (HEK-Blue cells, SEAP reporter, R848 stimulation)). Details: HEK-Blue cells overexpressing human TLR8, R848 15.9 μM.
T1 construct: host or cells: HEK-Blue cells
T1 sequence (Q9NR97 27-1041): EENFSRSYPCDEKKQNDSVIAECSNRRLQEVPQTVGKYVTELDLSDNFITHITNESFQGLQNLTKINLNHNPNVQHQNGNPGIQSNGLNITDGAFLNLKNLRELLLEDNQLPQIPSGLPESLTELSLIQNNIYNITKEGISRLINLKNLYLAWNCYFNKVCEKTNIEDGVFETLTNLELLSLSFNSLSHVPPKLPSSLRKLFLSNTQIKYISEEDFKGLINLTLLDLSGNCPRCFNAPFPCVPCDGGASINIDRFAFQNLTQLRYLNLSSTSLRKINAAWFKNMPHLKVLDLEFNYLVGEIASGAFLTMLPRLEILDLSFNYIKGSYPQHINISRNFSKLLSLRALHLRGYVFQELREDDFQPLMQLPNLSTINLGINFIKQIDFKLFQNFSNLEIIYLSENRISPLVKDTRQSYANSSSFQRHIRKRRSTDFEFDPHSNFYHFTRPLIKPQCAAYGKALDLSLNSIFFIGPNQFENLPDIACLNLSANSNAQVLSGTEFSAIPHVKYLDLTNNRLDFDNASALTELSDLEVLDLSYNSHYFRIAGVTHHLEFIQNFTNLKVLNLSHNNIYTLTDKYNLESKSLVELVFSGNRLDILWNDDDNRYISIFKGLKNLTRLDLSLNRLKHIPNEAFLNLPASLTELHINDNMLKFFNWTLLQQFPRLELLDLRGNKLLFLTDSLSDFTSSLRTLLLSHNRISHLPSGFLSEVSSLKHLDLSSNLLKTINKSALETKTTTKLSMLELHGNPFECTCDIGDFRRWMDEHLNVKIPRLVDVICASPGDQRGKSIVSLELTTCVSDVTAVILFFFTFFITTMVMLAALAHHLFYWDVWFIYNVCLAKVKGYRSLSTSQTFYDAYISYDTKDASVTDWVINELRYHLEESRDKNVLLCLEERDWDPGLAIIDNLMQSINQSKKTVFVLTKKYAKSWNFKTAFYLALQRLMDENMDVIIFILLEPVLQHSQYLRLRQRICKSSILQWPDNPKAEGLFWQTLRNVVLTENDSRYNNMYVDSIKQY
Format: cell-based
In short: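 SEAP readout via HEK-Blue Detection medium after 22 h at 37 °C, 5% CO2 defines inhibition, normalized between agonist-plus-DMSO wells and a reference inhibitor. Compound dose range 0.05 nM–50 μM; TLR7 cells at 15,000/well (gardiquimod), TLR8 at 20,000/well (R848).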
In the case of COc1ccc(-c2[nH]c3ccc(C4CCNCC4F)cc3c2C(C)C)cc1OC (racemic) [Example 319, 2-(3,4-dimethoxyphenyl)-5-(3-fluoropiperidin-4-yl)-3-isopropyl-1H-indole], the IC50 is reported as 46 nM. Compound COc1ccc(-c2[nH]c3ccc(C4CCNCC4F)cc3c2C(C)C)cc1OC (racemic) [Example 320, 2-(3,4-dimethoxyphenyl)-5-(3-fluoropiperidin-4-yl)-3-isopropyl-1H-indole] has an IC50 of 124 nM. COc1ccc(-c2[nH]c3ccc(C4CCNCC4F)cc3c2C(C)C)cc1OC (single isomer, unassigned) [Example 321, 2-(3,4-dimethoxyphenyl)-5-(3-fluoropiperidin-4-yl)-3-isopropyl-1H-indole] showed an IC50 of 21 nM. In the case of COc1ccc(-c2[nH]c3ccc(C4CCNCC4F)cc3c2C(C)C)cc1OC (single isomer, unassigned) [Example 322, 2-(3,4-dimethoxyphenyl)-5-(3-fluoropiperidin-4-yl)-3-isopropyl-1H-indole], the IC50 is reported as 22 nM. Work on COc1ccc(-c2[nH]c3ccc(C4CCNCC4F)cc3c2C(C)C)cc1OC (single isomer, unassigned) [Example 323, 2-(3,4-dimethoxyphenyl)-5-(3-fluoropiperidin-4-yl)-3-isopropyl-1H-indole] yielded an IC50 of 20 nM. Compound COc1ccc(-c2[nH]c3ccc(C4CCNCC4F)cc3c2C(C)C)cc1OC (single isomer, unassigned) [Example 324, 2-(3,4-dimethoxyphenyl)-5-(3-fluoropiperidin-4-yl)-3-isopropyl-1H-indole] has an IC50 of 20 nM. Compound CCN1CCCC(N2CCC(c3ccc4[nH]c(-c5ccc(OC)c(OC)c5)c(C)c4c3)CC2)C1 (stereo not shown) [Example 24, 2-(3,4-dimethoxyphenyl)-5-(1′-ethyl-[1,3′-bipiperidin]-4-yl)-3-methyl-1H-indole] has an IC50 of 27900 nM. Compound COc1ccc(-c2[nH]c3ccc(C4CCNCC4(F)F)cc3c2C(C)C)cc1OC (stereo not shown) [Example 325, 5-(3,3-difluoropiperidin-4-yl)-2-(3,4-dimethoxyphenyl)-3-isopropyl-1H-indole] has an IC50 of 147 nM. With COc1ccc(-c2[nH]c3ccc(C4CCNC(=O)C4)cc3c2C(C)C)cc1OC (stereo not shown) [Example 326, 4-(2-(3,4-dimethoxyphenyl)-3-isopropyl-1H-indol-5-yl)piperidin-2-one] the IC50 was 192 nM. COc1ccc(-c2[nH]c3ccc(C4CCNCC4)cc3c2CC(F)(F)F)cc1OC [Example 329, 2-(3,4-dimethoxyphenyl)-5-(piperidin-4-yl)-3-(2,2,2-trifluoroethyl)-1H-indole] gave an IC50 of 19 nM. COc1ccc(-c2[nH]c3ccc(C4CCN(C(=O)CCN5CCCCC5)CC4)cc3c2CC(F)(F)F)cc1OC [Example 330, 1-(4-(2-(3,4-dimethoxyphenyl)-3-(2,2,2-trifluoroethyl)-1H-indol-5-yl)piperidin-1-yl)-3-(piperidin-1-yl)propan-1-one] was tested, and the IC50 was 84 nM. COc1ccc(-c2[nH]c3ccc(C4CCN(C(=O)CCCn5ccnc5)CC4)cc3c2CC(F)(F)F)cc1OC [Example 331, 1-(4-(2-(3,4-dimethoxyphenyl)-3-(2,2,2-trifluoroethyl)-1H-indol-5-yl)piperidin-1-yl)-4-(1H-imidazol-1-yl)butan-1-one] was tested, and the IC50 was 221 nM. With COc1ccc(-c2[nH]c3ccc(C4CCN(C(=O)Cc5c[nH]c6ccccc56)CC4)cc3c2CC(F)(F)F)cc1OC [Example 332, 1-(4-(2-(3,4-dimethoxyphenyl)-3-(2,2,2-trifluoroethyl)-1H-indol-5-yl)piperidin-1-yl)-2-(1H-indol-3-yl)ethan-1-one] the IC50 was 4110 nM. COc1ccc(-c2[nH]c3ccc(C4CCN(C(=O)CCC(N)=O)CC4)cc3c2CC(F)(F)F)cc1OC [Example 333, 4-(4-(2-(3,4-dimethoxyphenyl)-3-(2,2,2-trifluoroethyl)-1H-indol-5-yl)piperidin-1-yl)-4-oxobutanamide] showed an IC50 of 702 nM. Compound COc1ccc(-c2[nH]c3ccc(C4CCN(C(=O)Cc5c[nH]cn5)CC4)cc3c2CC(F)(F)F)cc1OC [Example 334, 1-(4-(2-(3,4-dimethoxyphenyl)-3-(2,2,2-trifluoroethyl)-1H-indol-5-yl)piperidin-1-yl)-2-(1H-imidazol-4-yl)ethan-1-one] has an IC50 of 412 nM. In the case of COc1ccc(-c2[nH]c3ccc(C4CCN(C(=O)Cc5cccnc5)CC4)cc3c2CC(F)(F)F)cc1OC [Example 335, 1-(4-(2-(3,4-dimethoxyphenyl)-3-(2,2,2-trifluoroethyl)-1H-indol-5-yl)piperidin-1-yl)-2-(pyridin-3-yl)ethan-1-one], the IC50 is reported as 632 nM. For COc1ccc(-c2[nH]c3ccc(C4CCN(C(=O)[C@@H]5CCCN5C(C)=O)CC4)cc3c2CC(F)(F)F)cc1OC [Example 336, (S)-1-(2-(4-(2-(3,4-dimethoxyphenyl)-3-(2,2,2-trifluoroethyl)-1H-indol-5-yl)piperidine-1-carbonyl)pyrrolidin-1-yl)ethan-1-one], the IC50 was 697 nM. Compound COc1ccc(-c2[nH]c3ccc(C4CCN(C(=O)CCn5ccc6ccccc65)CC4)cc3c2CC(F)(F)F)cc1OC [Example 337, 1-(4-(2-(3,4-dimethoxyphenyl)-3-(2,2,2-trifluoroethyl)-1H-indol-5-yl)piperidin-1-yl)-3-(1H-indol-1-yl)propan-1-one] has an IC50 of 5080 nM. In the case of COc1ccc(-c2[nH]c3ccc(C4CCN(C(=O)Cc5ccc(N(C)C)cc5)CC4)cc3c2CC(F)(F)F)cc1OC [Example 338, 1-(4-(2-(3,4-dimethoxyphenyl)-3-(2,2,2-trifluoroethyl)-1H-indol-5-yl)piperidin-1-yl)-2-(4-(dimethylamino)phenyl)ethan-1-one], the IC50 is reported as 1460 nM. Work on COc1ccc(-c2[nH]c3ccc(C4CCN(C(=O)CC(F)(F)F)CC4)cc3c2CC(F)(F)F)cc1OC [Example 339, 1-(4-(2-(3,4-dimethoxyphenyl)-3-(2,2,2-trifluoroethyl)-1H-indol-5-yl)piperidin-1-yl)-3,3,3-trifluoropropan-1-one] yielded an IC50 of 822 nM. With COc1ccc(-c2[nH]c3ccc(C4CCN(C(=O)CCN(C)C)CC4)cc3c2CC(F)(F)F)cc1OC [Example 340, 1-(4-(2-(3,4-dimethoxyphenyl)-3-(2,2,2-trifluoroethyl)-1H-indol-5-yl)piperidin-1-yl)-3-(dimethylamino)propan-1-one] the IC50 was 32 nM. For COc1ccc(-c2[nH]c3ccc(C4CCN(C(=O)Cc5nnn[nH]5)CC4)cc3c2CC(F)(F)F)cc1OC [Example 341, 1-(4-(2-(3,4-dimethoxyphenyl)-3-(2,2,2-trifluoroethyl)-1H-indol-5-yl)piperidin-1-yl)-2-(1H-tetrazol-5-yl)ethan-1-one], the IC50 was 9390 nM. With COc1ccc(-c2[nH]c3ccc(C4CCN(C(=O)Cc5cnccn5)CC4)cc3c2CC(F)(F)F)cc1OC [Example 342, 1-(4-(2-(3,4-dimethoxyphenyl)-3-(2,2,2-trifluoroethyl)-1H-indol-5-yl)piperidin-1-yl)-2-(pyrazin-2-yl)ethan-1-one] the IC50 was 591 nM. Work on COc1ccc(-c2[nH]c3ccc(C4CCN(C(=O)CCCNC(C)=O)CC4)cc3c2CC(F)(F)F)cc1OC [Example 343, N-(4-(4-(2-(3,4-dimethoxyphenyl)-3-(2,2,2-trifluoroethyl)-1H-indol-5-yl)piperidin-1-yl)-4-oxobutyl)acetamide] yielded an IC50 of 371 nM. Work on COc1ccc(-c2[nH]c3ccc(C4CCN(C(=O)CCn5cccc5)CC4)cc3c2CC(F)(F)F)cc1OC [Example 344, 1-(4-(2-(3,4-dimethoxyphenyl)-3-(2,2,2-trifluoroethyl)-1H-indol-5-yl)piperidin-1-yl)-3-(1H-pyrrol-1-yl)propan-1-one] yielded an IC50 of 1420 nM. COc1ccc(-c2[nH]c3ccc(C4CCN(C(=O)C5CCN(C(C)=O)CC5)CC4)cc3c2CC(F)(F)F)cc1OC [Example 345, 1-(4-(4-(2-(3,4-dimethoxyphenyl)-3-(2,2,2-trifluoroethyl)-1H-indol-5-yl)piperidine-1-carbonyl)piperidin-1-yl)ethan-1-one] showed an IC50 of 1030 nM. Work on COc1ccc(-c2[nH]c3ccc(C4CCN(C(=O)CCC(=O)N(C)C)CC4)cc3c2CC(F)(F)F)cc1OC [Example 346, 4-(4-(2-(3,4-dimethoxyphenyl)-3-(2,2,2-trifluoroethyl)-1H-indol-5-yl)piperidin-1-yl)-N,N-dimethyl-4-oxobutanamide] yielded an IC50 of 529 nM. COc1ccc(-c2[nH]c3ccc(C4CCN(C(=O)CS(C)(=O)=O)CC4)cc3c2CC(F)(F)F)cc1OC [Example 347, 1-(4-(2-(3,4-dimethoxyphenyl)-3-(2,2,2-trifluoroethyl)-1H-indol-5-yl)piperidin-1-yl)-2-(methylsulfonyl)ethan-1-one] gave an IC50 of 767 nM.

— patent US11180474B2 (BRISTOL-MYERS SQUIBB COMPANY, priority 2016, dated 2021)
